Like-named read-outs stand apart in the source and are kept apart here.
Legend:
[1] = tested on: cholesterol synthesis in liver slices; test: Cholesterol synthesis from [1-14C] acetic acid in liver slices (Experimental Example 2); assay type: cell-based, male Wistar rats; conditions: drug final concentration 0.1-1.0 mM, 37° C., 120 minutes; control 100; Table 2
Description: Liver slices (0.5 mm) were prepared from male Wistar rats 5 weeks old acclimated for 10 days in a bright/dark inversion raising chamber (bright period: 8:00 p.m.-8:00 a.m.). […] Incubation was carried out at 37° C. for 120 minutes in 95% oxygen and 5% carbon dioxide. The reaction was stopped by adding 1 m.iota. of 15% potassium hydroxide/ethanol, and saponification was carried out at 80° C. for 2 hours. The sterol fraction was extracted by petroleum ether and was evaporated to driness. Thereafter, 1 m.iota. of acetone/ethanol (1:1) and 1 m.iota. of 0.5% digitonine were added, and the mixture was left standing for a night at room temperature. The precipitate was collected by centrifugal separation and was washed with 2 m.iota. of acetone/ether (1:1). The precipitate was further centrifuged. After the supernatant was discarded, the precipitate was dissolved in methanol and its radioactivity was measured.

Acute toxicity test = conditions: mouse, in vivo, ip; male S.P.P. mice, abdominally administered; Table 11
Description: The acute toxicity test was carried out by abdominally administering each test drug to male S.P.P. mice and determining an LD50 value.

[2] = tested on: cholic acid and chenodeoxycholic acid synthetic activity in liver cells; test: Synthetic activity of bile acid (cholic acid and chenodeoxycholic acid) in incubated liver cells (Experimental Example 3); assay type: cell-based, male Wistar rats; conditions: Rattus norvegicus, Hepatocyte, 24 hours, 37° C., control 100; for activity at 1 µM: 10^-6 M; for activity at 0.1 µM: 10^-7 M; for activity at 0.01 µM: 10^-8 M
Description: Influences on Synthetic Activity of Bilic Acid in Incubated Liver Cell
The liver cells were separated from male Wistar rats 5.0-5.5 weeks old using a reflux method in accordance with the method of Nakamura et al (Toshikazu Nakamura "The Experimental Method for the Primary Cultured Hepatocytes", 1987). In this case, the separation of the cells was started at 9-10:00 a.m. The separated liver cells were floated in a Williams E medium inactivated by heat-treatment and containing 10% FBS, 20 mU/m.iota. insulin, […] dexamethasone, 100 IU/m.iota. peniciline and 100 μg/m.iota. streptomycin so that the cell density became 1×10^5 cells/cm^2 /0.2 m.iota.. The liver cells were planted in a cell density of 1×10^5 cells/cm^2 /0.2 m.iota. in a dish having a diameter of 60 mm. After incubation at 37° C. for 4 hours, a medium exchange was made and the medium was changed to 3 m.iota.. Next, [4-^14 C] cholesterol was added in an amount of 11.655 kBq per dish, and a 0.33% ethanol solution of each test drug was added. Control used only 0.33% ethanol. After incubation was carried out at 37° C. for 24 hours, the synthetic activity of cholic acid and chemodexycholic acid generated in the cells and the medium were measured.
Measurement of Cholic Acid and Chenodeoxycholic Acid Synthetic Activity
The measurement of cholic acid and chenodeoxycholic acid synthetic activity was carried out in accordance with the method of M. G. Pricen et al (Hans M. G. Pricen, Chrisstine M. G. HuJismans, Folkerr Kuipers, Roel J. Vonk and Herman Jan M. Kempen, J. Clin. Invest., 78: 1064-1071, 1986). Twenty-four hours later, the cells and the medium were collected from the incubated liver cells and the cells were pulverized by a ultrasonic pulverizer. Bile acid was separated and eluted by a column cartridge having an opposite phase system, i.e., "Sep-pak"® C18 (Waters Associates, Milford, Mass.), and the conjugation of conjugated bile acid was hydrolyzed using choloylglycine hydrolase. The extraction of bile acid was carried out using chloroform after the solution was rendered acidic by hydrochloric acid. The extract was dissolved in 100 μ.iota. of water:methanol (1:4, containing 40 μg/10 μ.iota. cholic acid and 100 μg/100 μ.iota. chenodeoxycholic acid). 80 μ.iota. of this solution was spotted onto an aluminum plate (MERCK, ART 5582) and was developed using a developing solution consisting of benzene/1,4-dioxane/acetic acid (20:10:2). After the TLC plate was exposed to an iodine gas stream and each spot of bile acid was confirmed, it was cut off and its radioactivity was measured by a liquid scintillation counter. To correct the proportion of elution of the Sep-pak and the hydroclysis and extraction of conjugated bile acid by choloylglycine hydrolase, 2 nCi of [^3 H(G)] taurocholic acid was added and 3H of the spot of cholic acid was measured after the supersonic pulverization and correction was thus carried out (TsuJita, Y., Kuroda, M., Shimada, Y., Tanzawa, K., Arai, M., Kenko, I., Tanaka, M., Tarumi, C., Watanabe, Y., and Fujii, Biochemical et Biophysics Acta. 877:50-60, 1986).
Non-radioactive cholic acid and chenodeoxycholic acid were added as a carrier, to clarify the position of the spot by the iodine gas stream when bile acid was developed, but for the β-muricholic acid, the position of the spot was indefinite even when the non-radioactive acids were added. Therefore, the portion estimated by the Rf value described in the reference was cut off and measured again.

bile secretion = test: Cholagogic action, bile secretion (Experimental Example 5); assay type: in vivo, male Wistar rats; conditions: intraduodenal
Description: After male Wistar rats 7 weeks old were fasted for 24 hours, they were anesthetized by the interperitoneal administration of 1.25 g/kg (volume 2 m.iota./kg) of urethane. A polyethylene canula (SP-10, a product of Natsume Seisakusho) was inserted into a bile duct and after the bile was caused to flow out for 30 minutes, the bile was collected in the cource of 1 hour. Thereafter, each test drug was suspended or dissolved in a 1% aqueous Tween-80 solution, and was administered into the duodenum at a rate of 5 m.iota./kg. Furthermore, the bile was collected every hour in the course of five hours, and its weight was measured. Only a 1% Tween-80 solution was given as a control.
The results are tabulated in Tables 6, 7, 8, 9 and 10, wherein the bile secretion amount every hour was represented by a percentage with the bile secretion amount (mg) one hour before the dose of the test drug being 100.

hyperlipemia = test: Anti-hyperlipemia test in rats on high fat food (Experimental Example 1); assay type: in vivo, Male Wistar rats; conditions: peroral once a day, two weeks, control 100, Table 1
Text: Male Wistar rats 6.5 weeks old were allowed to freely intake a high fat food (containing 1% of cholesterol, 0.5% of sodium cholate, 12% of beef tallow and 20% of standard chow) in the cource of two weeks, to thus cause an outbreak of hyperlipemia. The dose of the drug was started simultaneously with the application of the high fat food, and was perorally given once a day through a stomach tube until the end of the experiment. The drugs were all suspended in a cane sugar fatty acid ester and were administered. The oily compounds were adjusted in advance to 100 mg/m.iota. by diethyl ether. A suitable amount was collected at the time of the dose and after diethyl ether was evaporated and removed, it was suspended in a cane sugar fatty acid ester (1% ryoto sugar ester) and then given. After the final dose of the drug, the rats were fasted for about 18 hours, and the blood was sampled to measure the blood serum lipid. The blood serum lipid was measured by using a TBA-380 biochemical analyzer (a product of Toshiba Medical Co.,) unless a particular hindrance occurred.

[3] = Table 4, read-out: Relative amount of synthesized chenodeoxycholic acid
[4] = Table 4, read-out: Relative amount of synthesized cholic acid
[5] = 0-1 hour after dose, control 82.9, Table 6
[6] = 1-2 hour after dose, control 74.1, Table 6
[7] = 2-3 hour after dose, control 66.1, Table 6
[8] = 3-4 hour after dose, control 59.8, Table 6
[9] = 4-5 hour after dose, control 53.3, Table 6
[10] = Table 3, read-out: Relative amount of synthesized chenodeoxycholic acid
[11] = Table 3, read-out: Relative amount of synthesized cholic acid

SMILES | Relative amount of synthesized cholesterol (%) [1] | LD50 (Acute toxicity test) | activity at 1 µM [2, 3] | activity at 1 µM [2, 4] | Bile secretion amount, percentage of the hour before dose (bile secretion; [5]) | Bile secretion amount, percentage of the hour before dose (bile secretion; [6]) | Bile secretion amount, percentage of the hour before dose (bile secretion; [7]) | Bile secretion amount, percentage of the hour before dose (bile secretion; [8]) | Bile secretion amount, percentage of the hour before dose (bile secretion; [9]) | also measured
CCOC(C)O[C@@H]1OC=C(C(=O)OC)[C@H]2CC=C(C=O)[C@@H]12 (stereo partly drawn) [Definite Example 22, methyl (1S, 4aS, 7aS)-1-[1-(ethoxy)ethoxy]-7-formyl-1,4a, 5,7a-tetrahydrocyclopenta[c]pyran-4-carboxylate] | 86.2% |  |  |  |  |  |  |  |  | 
COC(=O)C1=COC(O)[C@@H]2C(C=O)=CC[C@H]12 (stereo partly drawn) [Definite Example 23, methyl (4aS, 7aS)-7-formyl-1,4a, 5,7a-tetrahydro-1-hydroxycyclopenta[c]pyran-4-carboxylate] | 80.1% |  |  |  |  |  |  |  |  | 
C[C@H]1COC(O)[C@H]2[C@@H]1CC[C@@H]2C (stereo partly drawn) [Definite Example 44, (4R, 4aR, 7S, 7aR)-1,3,4,4a, 5,6,7,7a-octahydro-4,7-dimethylcyclopenta[c]pyran-1-ol] |  | 389 mg/kg | 155% | 130% | 137.2% | 95.0% | 78.4% | 66.5% | 59.8% | 
CC1=COC(O)[C@H]2[C@@H]1CC[C@@H]2C (stereo partly drawn) [Definite Example 43, (4aS, 7S, 7aR)-1,4a, 5,6,7,7a-hexahydro-4,7-dimethylcyclopenta[c]pyran-1-ol] |  | 231 mg/kg | 105% | 109% | 156.2% | 95.2% | 76.1% | 65.7% | 58.3% | 
COC(=O)C1=COC(OC(=O)c2ccccc2)C2C(C)=CCC12 [Definite Example 36, methyl (2S, 4aS, 7aS)-1-benzoyloxy-1,4a, 5,7a-tetrahydro-7-methylcyclopenta[c]pyran-4-carboxylate] | 72.4% |  |  |  |  |  |  |  |  | 
COC(=O)C1=COC(O)[C@@H]2[C@H](C)CC[C@H]12 (stereo partly drawn) [Definite Example 31, methyl (4aS, 7R, 7aR)-1,4a, 5,6,7,7a-hexahydro-1-hydroxy-7-methylcyclopenta[c]pyran-4-carboxylate] |  | 814 mg/kg | 113% | 105% |  |  |  |  |  | Blood serum cholesterol (%) (hyperlipemia; 10 mg/kg): 82.0%; Blood serum triglyceride (%) (hyperlipemia; 10 mg/kg): 79.0%; Blood serum cholesterol (%) (hyperlipemia; 30 mg/kg): 96.1%; Blood serum triglyceride (%) (hyperlipemia; 30 mg/kg): 76.5%; Bile secretion amount, percentage of the hour before dose (bile secretion; 0-1 hour after dose, control 84.1, Table 8): 126.7%; Bile secretion amount, percentage of the hour before dose (bile secretion; 1-2 hour after dose, control 72.5, Table 8): 88.0%; Bile secretion amount, percentage of the hour before dose (bile secretion; 2-3 hour after dose, control 63.8, Table 8): 73.0%; Bile secretion amount, percentage of the hour before dose (bile secretion; 3-4 hour after dose, control 56.7, Table 8): 63.7%; Bile secretion amount, percentage of the hour before dose (bile secretion; 4-5 hour after dose, control 51.2, Table 8): 55.1%
C[C@@H](CO)[C@H]1CC[C@H](C)[C@H]1CO [Definite Example 45, (2R)-2-[(1R, 2R, 3S)-2-(hydroxymethyl)-3-methylcyclopent-1-yl]propan-1-ol] |  | 406 mg/kg |  |  | 163.8% | 99.7% | 78.6% | 67.8% | 59.1% | activity at 1 µM [2, 10]: 152%; activity at 1 µM [2, 11]: 146%; activity at 0.1 µM [2, 10]: 119%; activity at 0.1 µM [2, 11]: 121%; activity at 0.01 µM [2, 10]: 112%; activity at 0.01 µM [2, 11]: 108%; Bile secretion amount, percentage of the hour before dose (bile secretion; 0-1 hour after dose, control 87.7, Table 7): 163.4%; Bile secretion amount, percentage of the hour before dose (bile secretion; 1-2 hour after dose, control 75.3, Table 7): 99.6%; Bile secretion amount, percentage of the hour before dose (bile secretion; 2-3 hour after dose, control 65.0, Table 7): 75.2%; Bile secretion amount, percentage of the hour before dose (bile secretion; 3-4 hour after dose, control 58.7, Table 7): 61.7%; Bile secretion amount, percentage of the hour before dose (bile secretion; 4-5 hour after dose, control 51.8, Table 7): 53.3%
